Format in all cases: cell-based
The subject of one assay is MCF-7 cells. The experiment in a line: Breast Cancer Cell Viability Assay (MCF7 Viability Assay). To be noted: 5 days' compound exposure, CellTiter-Glo; for IC50: Homo sapiens, MCF7, 120 h. The gist of the method: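 MCF-7 cells, 320 per well in RPMI with 10% FBS and 20 mM HEPES, adhered overnight, then exposed 5 days to an eleven-point semilog dilution (final 0.3–0.000003 μM). CellTiter-Glo luminescence; % viability relative to untreated cells after subtracting cell-free background.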

The target of assay [1] is T1, ER-α (Homo sapiens, UniProt P03372).
T1 construct: endogenous in cells; host or cells: MCF-7
T1 sequence (P03372 1-595): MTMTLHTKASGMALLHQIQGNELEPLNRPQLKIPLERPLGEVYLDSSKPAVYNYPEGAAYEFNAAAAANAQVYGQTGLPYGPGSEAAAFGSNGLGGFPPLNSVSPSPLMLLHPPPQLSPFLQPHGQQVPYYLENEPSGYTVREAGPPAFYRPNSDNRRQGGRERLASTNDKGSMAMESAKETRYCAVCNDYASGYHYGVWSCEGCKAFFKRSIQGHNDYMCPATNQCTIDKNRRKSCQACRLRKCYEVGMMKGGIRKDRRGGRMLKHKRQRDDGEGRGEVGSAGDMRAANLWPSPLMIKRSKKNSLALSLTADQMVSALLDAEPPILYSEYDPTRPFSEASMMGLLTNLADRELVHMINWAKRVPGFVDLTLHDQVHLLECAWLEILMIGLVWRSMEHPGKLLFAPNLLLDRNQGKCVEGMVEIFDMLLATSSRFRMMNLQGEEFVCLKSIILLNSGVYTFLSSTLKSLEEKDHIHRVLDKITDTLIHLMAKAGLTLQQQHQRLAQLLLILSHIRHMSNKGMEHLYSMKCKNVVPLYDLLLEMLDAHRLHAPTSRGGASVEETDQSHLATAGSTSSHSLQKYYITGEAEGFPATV
The experiment in a line: ER-α In Cell Western Assay (ER1D5). The note with it: MCF-7 cells, ER1D5 antibody, 4 or 24 hr post compound addition, read-out: ER In-Cell Western Assay (ER1D5); for Emax: MCF7, Max Response; for DC50: IC50. Here is the method:
MCF-7 cells were adjusted to a concentration of 200,000 cells per mL in RPMI containing 10% charcoal-stripped FBS and 20 mM HEPES. 16 microliters of the cell suspension (3200 cells) was added to each well of a poly-D-lysine 384 well plate, and the cells were incubated overnight to allow the cells to adhere. The following day an eleven point, serial semilog dilution of each compound was added to the cells in 16 μL at a final concentration ranging from 0.3-0.000003 μM. At 4 or 24 hr post compound addition, the cells were fixed (10% formalin in PBS) for 20 minutes. Cells were permeabalized in PBS 0.1% Triton and blocked with LICOR blocking buffer (50 μl/well, 90′). The wells were then incubated overnight at 4° C. with ER1D5 (Santa Cruz Biotechnology) diluted 1:100 in LICOR blocking buffer/0.1% Tween-20. Wells which were treated with blocking buffer with Tween but no antibody were used as a background control. Wells were washed with 0.1% Tween-20/PBS and then incubated in goat anti-mouse IRDye™ 800CW (LICOR Inc.; 1:1000) and DRAQ5 DNA dye (1:2000 for 2 mM stock) diluted in LICOR blocking buffer containing 0.1% Tween-20 and 0.01% SDS for 60 minutes. Cells were washed (50 μl/well, 5′ each) in 0.1% Tween-20/PBS. Plates were scanned on a LICOR Odyssey infrared imaging system. Integrated intensities in the 800 nm channel and 700 nm channel were measured to determine levels of ER and DNA respectively. Percent ER levels were determined as follows: (Integrated intensity 800 nm sample/integrated intensity 700 nm sample)/(Integrated intensity 800 nm untreated cells/integrated intensity 700 nm untreated cells)×100=% ER levels.

The target of assay [2] is T1, ER-α. The experiment in a line: ER-α in Cell Western Assay (SP1). To be noted: MCF-7 cells, SP1 rabbit monoclonal Ab, 4 or 24 hr post compound addition, read-out: ER In-Cell Western Assay (SP1); for Emax: MCF7, Max Response; for DC50: IC50. The gist of the method: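 MCF-7 cells in charcoal-stripped FBS medium treated with 11-point semilog dilutions (0.3–0.000003 μM final) for 4 or 24 hr, then fixed and immunostained with SP1 anti-ER antibody. ER signal (800 nm) normalized to DRAQ5 DNA signal (700 nm) and expressed as % of untreated cells.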

In the case of `CC1=C(c2cccc(O)c2)C(c2ccc(OC[C@@H](C)N3CCCC3)cc2)Oc2ccc(O)cc21` (stereo partly drawn) [Example 7, 3-(3-Hydroxyphenyl)-4-methyl-2-(4-((R)-2-(pyrrolidin-1-yl)propoxy)phenyl)-2H-chromen-6-ol], in the assay on MCF-7 cells, the “MCF7 Viability Assay Max Response” value is reported as “+ (+ = a single % value <50%)” and the IC50 (in general, the concentration needed to halve the response being measured) was at most 1 nM. In addition, on ER-α [1], the Emax was below 40% and the DC50 was above 1 nM. On ER-α [2], the Emax is below 60% and the DC50 was at most 1 nM.

As for `CC1=C(c2cccc(O)c2)C(c2ccc(NCCN3CCCC3)cc2)Oc2ccc(O)cc21` (stereo not drawn) [Example 22, 3-(3-Hydroxyphenyl)-4-methyl-2-(4-((2-(pyrrolidin-1-yl)ethyl)amino)phenyl)-2H-chromen-6-ol], in the assay with MCF-7 cells, the “MCF7 Viability Assay Max Response” value is “+ (+ = a single % value <50%)” and the IC50 was at most 1 nM. In addition, at ER-α [1], the Emax was 40 to 65% and the DC50 is above 1 nM. Further, on ER-α [2], the Emax fell in the range of 60 to 85% and the DC50 was at most 1 nM.

Take `C#Cc1ccc(C2=C(C)c3cc(O)ccc3OC2c2ccc(OC[C@H](C)N3CC[C@@H](C)C3)cc2)cc1` (stereo partly drawn) [Example 58, 3-(4-Ethynylphenyl)-4-methyl-2-(4-((S)-2-((R)-3-methylpyrrolidin-1-yl)propoxy)phenyl)-2H-chromen-6-ol]: in the assay on MCF-7 cells, the “MCF7 Viability Assay Max Response” value was “++ (++ = a single % value ≧50%)” and the concentration for half-maximal inhibition (IC50) is above 1 nM. Besides, at ER-α [1], the Emax was at least 65% and the DC50 was above 1 nM. At ER-α [2], the Emax lay in the range of 60 to 85% and the DC50 is at most 1 nM.

In the case of `CC1=C(c2cccc(O)c2)C(c2ccc(OCCN3CCCCCCC3)cc2)Oc2ccc(O)cc21` (stereo not drawn) [Example 25, 2-(4-(2-(Azocan-1-yl)ethoxy)phenyl)-3-(3-hydroxyphenyl)-4-methyl-2H-chromen-6-ol], in the assay on MCF-7 cells, the “MCF7 Viability Assay Max Response” value is “+ (+ = a single % value <50%)” and the 50% inhibitory concentration (IC50) was at most 1 nM. Further, on ER-α [1], the Emax was below 40% and the DC50 is at most 1 nM. Further, at ER-α [2], the Emax is below 60% and the DC50 was at most 1 nM.

As to `CC1=C(c2cccc(O)c2)[C@H](c2ccc(OC[C@H](C)N3CC[C@@H](C)C3)cc2)Oc2ccc(O)cc21` (single isomer, unassigned) [Example 2a], in the assay with MCF-7 cells, the “MCF7 Viability Assay Max Response” value is “++ (++ = a single % value ≧50%)” and the half-maximal inhibitory concentration (IC50) was at most 1 nM. At ER-α [1], the Emax was at least 65% and the DC50 was at most 1 nM. For the same compound, on ER-α [2], the Emax was at least 85% and the DC50 is at most 1 nM.

For `CC1=C(c2ccc(O)cc2)C(c2ccc(OC[C@H](C)N3CC[C@@H](C)C3)cc2)Oc2cc(O)ccc21` (stereo partly drawn) [Example 28, 3-(4-Hydroxyphenyl)-4-methyl-2-(4-((S)-2-((R)-3-methylpyrrolidin-1-yl)propoxy)phenyl)-2H-chromen-7-ol], in the assay with MCF-7 cells, the “MCF7 Viability Assay Max Response” value is “++ (++ = a single % value ≧50%)” and the half-maximal inhibitory concentration (IC50) is at most 1 nM. For the same compound, at ER-α [1], the Emax is at least 65% and the DC50 is at most 1 nM. Also, on ER-α [2], the Emax is at least 85% and the DC50 was at most 1 nM.

Turning to `CC1=C(c2cccc(O)c2)C(c2ccc(OC[C@H](C)N3CC[C@H](C)C3)cc2)Oc2ccc(O)cc21` (stereo partly drawn) [Example 12, 3-(3-Hydroxyphenyl)-4-methyl-2-(4-((S)-2-((S)-3-methylpyrrolidin-1-yl)propoxy)phenyl)-2H-chromen-6-ol], in the assay with MCF-7 cells, the “MCF7 Viability Assay Max Response” value is recorded as “++ (++ = a single % value ≧50%)” and the IC50 is at most 1 nM. For the same compound, at ER-α [1], the Emax is 40 to 65% and the DC50 was at most 1 nM. On ER-α [2], the Emax lay within 60 to 85% and the DC50 is at most 1 nM.

As for `CC1=C(c2cccc(O)c2)C(c2ccc(OC[C@H](C)N3CC[C@@H](C)C3)cc2)Oc2cc(O)ccc21` (stereo partly drawn) [Example 27, 3-(3-Hydroxyphenyl)-4-methyl-2-(4-((S)-2-((R)-3-methylpyrrolidin-1-yl)propoxy)phenyl)-2H-chromen-7-ol], in the assay on MCF-7 cells, the “MCF7 Viability Assay Max Response” value was “++ (++ = a single % value ≧50%)” and the 50% inhibitory concentration (IC50) was at most 1 nM. Further, on ER-α [1], the Emax is at least 65% and the DC50 is at most 1 nM. In addition, at ER-α [2], the Emax was at least 85% and the DC50 is at most 1 nM.

As for `CCN(CC)CCOc1ccc(C2Oc3ccc(O)cc3C(C)=C2c2cccc(O)c2)cc1` (stereo not drawn) [Example 5, 2-(4-(2-(Diethylamino)ethoxy)phenyl)-3-(3-hydroxyphenyl)-4-methyl-2H-chromen-6-ol], in the assay with MCF-7 cells, the “MCF7 Viability Assay Max Response” value is recorded as “++ (++ = a single % value ≧50%)” and the IC50 was at most 1 nM. In addition, on ER-α [1], the Emax was below 40% and the DC50 was above 1 nM. At ER-α [2], the Emax was below 60% and the DC50 was at most 1 nM.

In the case of `CC1=C(c2cccc(O)c2)C(c2ccc(OCCN3CCCC3)cc2)Oc2cc(O)ccc21` (stereo not drawn) [Example 26, 3-(3-Hydroxyphenyl)-4-methyl-2-(4-(2-(pyrrolidin-1-yl)ethoxy)phenyl)-2H-chromen-7-ol], in the assay on MCF-7 cells, the “MCF7 Viability Assay Max Response” value is recorded as “++ (++ = a single % value ≧50%)” and the half-maximal inhibitory concentration (IC50) was at most 1 nM. Also, at ER-α [1], the Emax fell in the range of 40 to 65% and the DC50 was at most 1 nM. Also, on ER-α [2], the Emax lay within 60 to 85% and the DC50 is at most 1 nM.

With `CC1=C(c2cccc(O)c2)C(c2ccc(OC[C@H](C)N3CC[C@@H](C)C3)cc2)Oc2ccc(O)cc21` (mixture of isomers) [Example 2, 3-(3-Hydroxyphenyl)-4-methyl-2-(4-((S)-2-((R)-3-methylpyrrolidin-1-yl)propoxy)phenyl)-2H-chromen-6-ol], in the assay with MCF-7 cells, the “MCF7 Viability Assay Max Response” value was “++ (++ = a single % value ≧50%)” and the concentration for half-maximal inhibition (IC50) was at most 1 nM. In addition, on ER-α [1], the Emax was at least 65% and the DC50 was at most 1 nM. In addition, on ER-α [2], the Emax was at least 85% and the DC50 was at most 1 nM.

For the compound `CC1=C(c2cccc(O)c2)C(c2ccc(OCCN3CCCC3)cc2)Oc2ccc(O)cc21` (stereo not drawn) [Example 36, 3-(3-Hydroxyphenyl)-4-methyl-2-(4-(2-(pyrrolidin-1-yl)ethoxy)phenyl)-2H-chromen-6-ol], in the assay on MCF-7 cells, the “MCF7 Viability Assay Max Response” value was “++ (++ = a single % value ≧50%)” and the IC50 is at most 1 nM. On ER-α [1], the Emax was 40 to 65% and the DC50 is at most 1 nM. On ER-α [2], the Emax was in the range of 60 to 85% and the DC50 was at most 1 nM.

`CC1=C(c2ccc(O)c(F)c2)C(c2ccc(OC[C@H](C)N3CC[C@@H](C)C3)cc2)Oc2ccc(O)cc21` (stereo partly drawn) [Example 33, 3-(3-Fluoro-4-hydroxyphenyl)-4-methyl-2-(4-((S)-2-((R)-3-methylpyrrolidin-1-yl)propoxy)phenyl)-2H-chromen-6-ol]: in the assay on MCF-7 cells, the “MCF7 Viability Assay Max Response” value is reported as “++ (++ = a single % value ≧50%)” and the half-maximal inhibitory concentration (IC50) was at most 1 nM. Also, on ER-α [1], the Emax is at least 65% and the DC50 is at most 1 nM. On ER-α [2], the Emax was at least 85% and the DC50 was at most 1 nM.

In the case of `CC1=C(c2cccc(O)c2)C(c2ccc(OCCn3ccnc3)cc2)Oc2ccc(O)cc21` (stereo not drawn) [Example 16], in the assay with MCF-7 cells, the “MCF7 Viability Assay Max Response” value is given as “+ (+ = a single % value <50%)” and the IC50 was at most 1 nM. Also, at ER-α [1], the Emax is below 40% and the DC50 is above 1 nM. Besides, on ER-α [2], the Emax was below 60% and the DC50 was at most 1 nM.

The record behind these values is patent US9078871B2, “Estrogen receptor modulators and uses thereof” (SERAGON PHARMACEUTICALS, INC., priority 2010, dated 2015).
